Source: patent US12581252B2, “Substituted pyrrolo[3,4-b]pyridines as PI3K-α inhibitors” (Relay Therapeutics, Inc., priority 2020, dated 2026)
pIC50: −log10 of the molar value.

What follows are molecules tested against H1047R PIK3CA enzyme (Homo sapiens, UniProt P42336, H1047R) (assay: ADP-Glo Biochemical PIK3CA Kinase Assay).
H1047R PIK3CA enzyme, sequence (P42336 whole entry H1047R): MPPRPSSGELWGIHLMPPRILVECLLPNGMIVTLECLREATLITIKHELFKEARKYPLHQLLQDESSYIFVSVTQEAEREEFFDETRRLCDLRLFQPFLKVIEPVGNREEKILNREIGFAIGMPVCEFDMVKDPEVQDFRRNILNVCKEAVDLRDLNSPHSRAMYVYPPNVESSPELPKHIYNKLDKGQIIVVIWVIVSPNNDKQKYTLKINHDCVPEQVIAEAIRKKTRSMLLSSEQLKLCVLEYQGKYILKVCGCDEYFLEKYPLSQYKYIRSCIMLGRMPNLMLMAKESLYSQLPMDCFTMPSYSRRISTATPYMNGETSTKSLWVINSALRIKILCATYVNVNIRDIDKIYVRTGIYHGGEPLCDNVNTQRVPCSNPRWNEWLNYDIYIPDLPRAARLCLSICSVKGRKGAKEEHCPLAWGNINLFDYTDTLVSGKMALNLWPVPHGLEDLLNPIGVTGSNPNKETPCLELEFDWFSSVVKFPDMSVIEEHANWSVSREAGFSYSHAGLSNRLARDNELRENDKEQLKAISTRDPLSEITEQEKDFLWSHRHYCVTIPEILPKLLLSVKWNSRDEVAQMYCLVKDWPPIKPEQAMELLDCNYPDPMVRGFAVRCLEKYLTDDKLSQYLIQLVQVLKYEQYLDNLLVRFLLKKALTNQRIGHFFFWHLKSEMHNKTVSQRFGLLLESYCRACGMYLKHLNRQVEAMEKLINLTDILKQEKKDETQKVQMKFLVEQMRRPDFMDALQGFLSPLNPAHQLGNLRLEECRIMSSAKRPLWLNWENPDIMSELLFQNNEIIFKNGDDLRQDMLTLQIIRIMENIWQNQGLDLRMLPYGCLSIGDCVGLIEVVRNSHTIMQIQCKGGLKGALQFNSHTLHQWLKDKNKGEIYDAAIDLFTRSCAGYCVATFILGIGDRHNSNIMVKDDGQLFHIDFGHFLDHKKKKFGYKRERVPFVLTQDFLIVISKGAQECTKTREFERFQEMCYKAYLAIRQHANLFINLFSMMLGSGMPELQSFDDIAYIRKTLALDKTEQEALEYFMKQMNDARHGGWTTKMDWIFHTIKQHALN
H1047R PIK3CA enzyme, sequence (P27986 whole entry partner): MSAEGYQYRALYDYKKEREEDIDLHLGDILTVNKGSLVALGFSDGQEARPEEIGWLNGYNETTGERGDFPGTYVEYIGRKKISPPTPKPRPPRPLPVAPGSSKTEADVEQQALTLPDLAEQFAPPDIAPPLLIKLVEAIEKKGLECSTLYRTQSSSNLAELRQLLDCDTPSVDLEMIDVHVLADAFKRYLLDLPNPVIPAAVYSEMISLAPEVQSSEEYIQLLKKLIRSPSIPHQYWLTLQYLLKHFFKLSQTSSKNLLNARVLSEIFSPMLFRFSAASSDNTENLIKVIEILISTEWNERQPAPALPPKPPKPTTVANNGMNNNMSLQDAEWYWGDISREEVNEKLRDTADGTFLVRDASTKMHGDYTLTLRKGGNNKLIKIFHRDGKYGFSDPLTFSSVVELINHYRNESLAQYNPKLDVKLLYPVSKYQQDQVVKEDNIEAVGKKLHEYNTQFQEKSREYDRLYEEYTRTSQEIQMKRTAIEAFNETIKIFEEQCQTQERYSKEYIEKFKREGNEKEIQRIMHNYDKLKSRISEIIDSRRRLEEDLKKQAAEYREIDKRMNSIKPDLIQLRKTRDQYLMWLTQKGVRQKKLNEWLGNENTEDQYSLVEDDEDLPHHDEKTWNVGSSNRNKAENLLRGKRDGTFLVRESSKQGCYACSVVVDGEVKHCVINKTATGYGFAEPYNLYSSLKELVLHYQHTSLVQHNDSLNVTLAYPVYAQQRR

| SMILES | pIC50 |
| --- | --- |
| O=C(Nc1cc(Br)cc2c1C(c1cc(F)ccc1Cl)NC2=O)c1cc(F)cc2c1NC(=O)C2(F)F (stereo not shown) [Compound I-1381] | 6.30 to 7.00 |
| Cc1ccccc1C1NC(=O)c2cccc(NC(=O)N3CCCCC3)c21 (stereo not shown) [Compound I-433] | 4.00 to 5.00 |
| COC(C)(C)Cc1cc(NC(=O)c2cc(F)cc(C(F)(F)F)c2)c2c(c1)C(=O)NC2c1cc(F)ccc1Cl (stereo not shown) [Compound I-820] | ≥ 7.00 |
| NC1CCC(C(=O)Nc2cc(-c3ccc4ncnn4c3)cc3c2C(c2cc(F)ccc2Cl)NC3=O)CC1 (stereo not shown) [Compound I-1759] | 4.00 to 5.00 |
| Cc1ncc(-c2cc(NC(=O)c3cc(F)cc(Cl)c3)c3c(n2)C(=O)NC3c2cc(F)ccc2Cl)s1 (stereo not shown) [Compound I-457] | ≥ 7.00 |
| CC(C)(C#N)n1cc(-c2cc(NC(=O)c3cc(F)cc(C(F)(F)F)c3)c3c(c2)C(=O)N[C@@H]3c2cc(F)ccc2Cl)cn1 [Compound I-1660] | 6.00 to 6.30 |
| O=C1NC(c2cc(F)ccc2Cl)c2c(NC(=O)N3CCc4ccc(C(F)(F)F)cc43)cccc21 (stereo not shown) [Compound I-2447] | 5.00 to 6.00 |
| O=C(Nc1cc(NCC(F)F)nc2c1C(c1cc(F)ccc1Cl)NC2=O)c1cc(F)cc(C(F)(F)F)c1 (stereo not shown) [Compound I-338] | ≥ 7.00 |
| COCCOc1cc(NC(=O)c2cc(F)cc(C(F)(F)F)c2)c2c(c1)C(=O)NC2c1cc(F)ccc1Cl (stereo not shown) [Compound I-977] | 6.30 to 7.00 |
| Cc1ccccc1C1NS(=O)(=O)c2cccc(NC(=O)c3cc(F)cc(C(F)(F)F)c3)c21 (stereo not shown) [Compound I-535] | 5.00 to 6.00 |
| O=C1N[C@@H](c2cc(F)ccc2Cl)c2c(NC(=O)[C@@H]3CC[C@H](C(F)(F)F)C3)cccc21 [Compound I-2086] | 5.00 to 6.00 |
| Nc1nnc2ccc(-c3cc(NC(=O)c4cc(F)cc(C(F)(F)F)c4)c4c(c3)C(=O)N[C@@H]4c3cc(F)ccc3Cl)cn12 [Compound I-1448] | 6.00 to 6.30 |
| CN1C(=O)CC[C@@H]1COc1cc(NC(=O)c2cc(F)cc(C(F)(F)F)c2)c2c(c1)C(=O)N[C@@H]2c1cc(F)ccc1Cl (single isomer, unassigned) [Compound I-1569] | 4.00 to 5.00 |
| O=C(Nc1cc(C#CC2CC(F)(F)C2)cc2c1C(c1cc(F)ccc1Cl)NC2=O)c1cc(F)cc(C(F)(F)F)c1 (stereo not shown) [Compound I-1194] | 6.30 to 7.00 |
| O=C(CC1CCCC(O)C1)Nc1cc(-c2ccc3ncnn3c2)cc2c1C(c1cc(F)ccc1Cl)NC2=O (stereo not shown) [Compound I-1960] | 4.00 to 5.00 |
| O=C1N[C@H](c2cc(F)ccc2Cl)c2c(NC(=O)[C@H]3C[C@H](O)C[C@@H](C(F)(F)F)C3)cccc21 (single isomer, unassigned) [Compound I-2178] | 4.00 to 5.00 |
| C[C@H](c1cc(NC(=O)c2cc(F)cc(C(F)(F)F)c2)c2c(c1)C(=O)N[C@@H]2c1cc(F)ccc1Cl)S(C)(=O)=O (single isomer, unassigned) [Compound I-1643] | 5.00 to 6.00 |
| O=C(Nc1cc(NC2=NCC3(CC3)O2)cc2c1C(c1cc(F)ccc1Cl)NC2=O)c1cc(F)cc(C(F)(F)F)c1 (stereo not shown) [Compound I-2327] | 6.30 to 7.00 |
| O=C1N[C@H](c2cc(F)ccc2Cl)c2c(NC(=O)N3C[C@@H](O)c4cc(F)ccc43)cc(-c3cnn(C(F)F)c3)cc21 (single isomer, unassigned) [Compound I-2476] | 4.00 to 5.00 |
| CC(C)N1C[C@H](O)C[C@H]1C(=O)Nc1cccc2c1C(c1cc(F)ccc1Cl)NC2=O (mixture of isomers) [Compound I-2392] | 4.00 to 5.00 |
| O=C1NC(c2cc(F)ccc2Cl)c2c(NC(=O)N3CCc4c3cccc4C(F)(F)F)cccc21 (stereo not shown) [Compound I-2498] | 5.00 to 6.00 |

| SMILES | pIC50 |
| --- | --- |
| O=C1N[C@@H](c2cc(F)ccc2C(F)F)c2c(NC(=O)c3nsc4ccccc34)cccc21 [Compound I-168] | ≥ 7.00 |
| O=C1NC(c2cc(F)ccc2Cl)c2c(NC(=O)c3cccn4ccnc34)cc(Br)cc21 (stereo not shown) [Compound I-562] | 4.00 to 5.00 |
| CC(C)Oc1cc(NC(=O)c2cc(F)cc(C(F)(F)F)c2)c2c(c1)C(=O)NC2c1cc(F)ccc1Cl (stereo not shown) [Compound I-1253] | ≥ 7.00 |
| CN1C[C@H](Nc2cc(NC(=O)c3cc(F)cc(C(F)(F)F)c3)c3c(c2)C(=O)NC3c2cc(F)ccc2Cl)CC1=O (single isomer, unassigned) [Compound I-343] | ≥ 7.00 |
| Nc1c(Cl)cc(F)cc1C(=O)Nc1cc(Br)cc2c1C(c1cc(F)ccc1Cl)NC2=O (stereo not shown) [Compound I-843] | 6.30 to 7.00 |
| CS(=O)(=O)Nc1cc(-c2ccc3ncnn3c2)cc2c1C(c1cc(F)ccc1Cl)NC2=O (stereo not shown) [Compound I-1898] | 5.00 to 6.00 |
| O=C1C[C@H](c2cc(NC(=O)c3cc(F)cc(C(F)(F)F)c3)c3c(c2)C(=O)N[C@@H]3c2cc(F)ccc2Cl)CN1 (single isomer, unassigned) [Compound I-1711] | 5.00 to 6.00 |
| O=C(Nc1cc(Br)cc2c1C(c1cc(F)ccc1Cl)NC2=O)c1ccc(C(F)(F)F)s1 (stereo not shown) [Compound I-1427] | 5.00 to 6.00 |
| O=C(Nc1cc(-c2cnc(OC3CC3)nc2)cc2c1C(c1cc(F)ccc1Cl)NC2=O)c1cc(F)cc(C(F)(F)F)c1 (stereo not shown) [Compound I-1492] | ≥ 7.00 |
| O=C(Nc1cc(O[C@H]2CC[C@@H]2O)cc2c1C(c1cc(F)ccc1Cl)NC2=O)c1cc(F)cc(C(F)(F)F)c1 (mixture of isomers) [Compound I-1289] | 6.30 to 7.00 |
| N#CCCc1cc(NC(=O)N2C[C@@H](O)c3cc(F)ccc32)c2c(c1)C(=O)N[C@H]2c1cc(F)ccc1Cl (single isomer, unassigned) [Compound I-2347] | 6.30 to 7.00 |
| O=C1NC(c2cc(F)ccc2Cl)c2c1cccc2N1Cc2ccccc2CC1=O (stereo not shown) [Compound I-1746] | 4.00 to 5.00 |
| N#Cc1cnc2ncc(-c3cc(NC(=O)c4cc(F)cc(C(F)(F)F)c4)c4c(c3)C(=O)NC4c3cc(F)ccc3Cl)cn12 (stereo not shown) [Compound I-1796] | ≥ 7.00 |
| CCCCC(C)(O)c1cc(NC(=O)c2cc(F)cc(C(F)(F)F)c2)c2c(c1)C(=O)NC2c1cc(F)ccc1Cl (stereo not shown) [Compound I-1186] | ≥ 7.00 |
| Nc1ncc(-c2cc(NC(=O)c3cc(F)cc(C(F)(F)F)c3)c3c(c2)C(=O)N[C@H]3c2cc(F)ccc2Cl)cn1 (stereo in doubt) [Compound I-1004] | 5.00 to 6.00 |
| NCCc1cc(NC(=O)N2C[C@@H](O)c3cc(F)ccc32)c2c(c1)C(=O)N[C@H]2c1cc(F)ccc1Cl (single isomer, unassigned) [Compound I-2446] | 5.00 to 6.00 |
| CN(C)S(=O)(=O)Cc1cc(NC(=O)c2cc(F)cc(C(F)(F)F)c2)c2c(c1)C(=O)N[C@H]2c1cc(F)ccc1Cl [Compound I-1489] | ≥ 7.00 |
| O=C(Nc1cc(OCC(F)F)cc2c1[C@H](c1cc(F)ccc1Cl)NC2=O)c1cc(F)cc(C(F)(F)F)c1 [Compound I-2062] | ≥ 7.00 |
| O=C(O)Cc1ccncc1-c1cc(NC(=O)c2cc(F)cc(C(F)(F)F)c2)c2c(c1)C(=O)NC2c1cc(F)ccc1Cl (stereo not shown) [Compound I-1220] | ≥ 7.00 |
| O=C1N[C@@H](c2cc(F)ccc2Cl)c2c(NC(=O)N3C[C@](O)(C(F)(F)F)c4cc(F)ccc43)cc(-n3ncccc3=O)cc21 (single isomer, unassigned) [Compound I-2533] | 5.00 to 6.00 |
| CNC(=O)c1cc(NC(=O)c2cc(F)cc(C(F)(F)F)c2)c2c(c1)c(=O)[nH]n2-c1cc(F)ccc1Cl [Compound I-808] | 5.00 to 6.00 |

| SMILES | pIC50 |
| --- | --- |
| O=C(Nc1cc(-c2cccnc2)cc2c1[C@H](c1cc(F)ccc1Cl)NC2=O)c1cc(F)cc(C(F)(F)F)c1 (stereo in doubt) [Compound I-1008] | 5.00 to 6.00 |
| COc1cc(F)cc(C(=O)Nc2cc(Br)cc3c2C(c2cc(F)ccc2Cl)NC3=O)c1 (stereo not shown) [Compound I-800] | 6.00 to 6.30 |
| O=C(Nc1ccccc1)Nc1cc(Br)cc2c1[C@@H](c1cc(F)ccc1Cl)NC2=O (stereo in doubt) [Compound I-1946] | 5.00 to 6.00 |
| CNC(=O)Cc1cc(NC(=O)c2cc(F)cc(C(F)(F)F)c2)c2c(c1)C(=O)NC2c1cc(F)ccc1Cl (stereo not shown) [Compound I-438] | ≥ 7.00 |
| Nc1nn(C(=O)Nc2cccc3c2C(c2cc(F)ccc2Cl)NC3=O)c2ccccc12 (stereo not shown) [Compound I-2381] | 6.30 to 7.00 |
| CC[C@H](CC(=O)Nc1cccc2c1[C@@H](c1cc(F)ccc1Cl)NC2=O)[C@@H](C)C(F)(F)F (single isomer, unassigned) [Compound I-2338] | 4.00 to 5.00 |
| O=C1NC(c2cc(F)ccc2Cl)c2c(Nc3nccc4ccsc34)cc(Br)cc21 (stereo not shown) [Compound I-1461] | 4.00 to 5.00 |
| Cn1c2c(c(NC(=O)c3cc(F)cc(C(F)(F)F)c3)cc1=O)C(c1cc(F)ccc1Cl)NC2=O (stereo not shown) [Compound I-727] | 4.00 to 5.00 |
| Cn1cc(-c2cc(NC(=O)c3cc(F)cc(C(F)(F)F)c3)c3c(n2)C(=O)N[C@@H]3c2cc(F)ccc2Cl)cn1 [Compound I-186] | 6.00 to 6.30 |
| COc1ncc(-c2cc(NC(=O)c3cc(F)cc(C(F)(F)F)c3)c3c(c2)C(=O)NC3c2cc(F)ccc2Cl)c(N)n1 (stereo not shown) [Compound I-1151] | 6.30 to 7.00 |
| O=C1NC(c2cc(F)ccc2Cl)c2c(NC(=O)C3CCNCC3)cc(-c3ccc4ncnn4c3)cc21 (stereo not shown) [Compound I-1751] | 4.00 to 5.00 |
| Nc1cc(NC(=O)N2C[C@H](O)c3cc(F)ccc32)c2c(c1)C(=O)N[C@@H]2c1cc(F)ccc1Cl (single isomer, unassigned) [Compound I-2412] | 5.00 to 6.00 |
| CNc1cc(Nc2csc3ccccc23)cc2c1C(=O)NC2c1ccccc1C (stereo not shown) [Compound I-77] | 5.00 to 6.00 |
| Cc1cn(-c2cc(NC(=O)N3C[C@@](O)(C(F)(F)F)c4cc(F)ccc43)c3c(c2)C(=O)N[C@@H]3c2cc(F)ccc2Cl)cn1 (single isomer, unassigned) [Compound I-2636] | 5.00 to 6.00 |
| O=C(Nc1cc(Br)cc2c1C(c1cc(F)ccc1Cl)NC2=O)c1cccc(OC(F)(F)F)c1 (stereo not shown) [Compound I-514] | 6.00 to 6.30 |
| O=C1N[C@@H](c2ccccc2Cl)c2c(NC(=O)c3csc4ccccc34)ccnc21 [Compound I-32] | 5.00 to 6.00 |
| Cc1cc(=O)[nH]cc1C(=O)Nc1cc(Br)cc2c1[C@@H](c1cc(F)ccc1Cl)NC2=O [Compound I-2107] | 4.00 to 5.00 |
| CC(C)(O)COc1cc(NC(=O)c2cc(F)cc(C(F)(F)F)c2)c2c(c1)C(=O)NC2c1cc(F)ccc1Cl (stereo not shown) [Compound I-709] | ≥ 7.00 |
| CC(C)(O)c1cc(NC(=O)c2cc(F)cc(C(F)(F)F)c2)c2c(c1)C(=O)NC2c1cc(F)ccc1Cl (stereo not shown) [Compound I-128, N-(3-(2-chloro-5-fluorophenyl)-6-(2-hydroxypropan-2-yl)-1-oxoisoindolin-4-yl)-3-fluoro-5-(trifluoromethyl)benzamide] | ≥ 7.00 |
